# Target: Mitogen-activated protein kinase 1 (Mus musculus, UniProt P63085)
# Experiment: Active ERK2 (aERK) Assay: Activated ERK2 activity was also determined in the IMAP assay format using the procedure outlined above. 1 μl of 25× compound was added to 14 μl of kinase buffer containing 0.25 ng fully phosphorylated, active Mouse ERK2 protein. Following a 30 minute incubation, the reactions were initiated by addition of 10 μl of kinase buffer containing 1 μM ERK2 IMAP substrate peptide (0.9 μM unlabeled IPTTPITTTYFFFK-CONH2 and 100 nM IPTTPITTTYFFFK(5-carboxyfluorescein)-CONH2) and 30 μM ATP. Reactions proceeded for 30 minutes before termination by addition of 60 μl IMAP detection beads in binding buffer. Plates were read as above after 30 minute binding equilibration. Active compounds were reconfirmed in an independent assay.
# Mitogen-activated protein kinase 1, sequence (P63085 whole entry): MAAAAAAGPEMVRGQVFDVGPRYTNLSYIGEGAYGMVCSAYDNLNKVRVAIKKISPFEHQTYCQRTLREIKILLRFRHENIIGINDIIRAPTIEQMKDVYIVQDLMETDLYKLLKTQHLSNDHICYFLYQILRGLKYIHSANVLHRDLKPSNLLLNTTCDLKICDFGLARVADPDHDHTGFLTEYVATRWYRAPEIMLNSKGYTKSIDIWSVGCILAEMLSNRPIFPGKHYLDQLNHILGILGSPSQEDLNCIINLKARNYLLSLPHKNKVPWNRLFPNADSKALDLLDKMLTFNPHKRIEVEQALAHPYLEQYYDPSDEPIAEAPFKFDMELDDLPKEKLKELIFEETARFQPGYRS
row,Structure (SMILES),IC50
1,Cc1cc(-c2n[nH]c3ccc(C(=O)N[C@H]4CCC[C@@](O)(Cn5cc6cc(F)ccc6n5)C4)cc23)ccn1 (relative stereo),772 nM
2,Cc1cc(-c2n[nH]c3ccc(C(=O)N[C@@H]4CCC[C@](O)(Cn5cc6cccnc6n5)C4)cc23)ccn1 (relative stereo),404 nM

# — ChEMBL document CHEMBL3886748, “Indazole derivatives useful as ERK inhibitors” (2016)
